From ChEMBL document CHEMBL3044529, “7-Hydroxy-coumarin derivatives: synthesis, characterization and preliminary antimicrobial activities” (2011)
Values after ≈ are worked out from the molar mass of the structure shown.

Tests used:
Type in all cases: functional
Candida parapsilosis = test: Antimicrobial activity against Candida parapsilosis by macro dilution test; details: Lodderomyces parapsilosis
Cryptococcus neoformans = test: Antimicrobial activity against Cryptococcus neoformans by macro dilution test
Pichia kudriavzevii = test: Antimicrobial activity against Pichia kudriavzevii by macro dilution test
Escherichia coli = test: Antimicrobial activity against Escherichia coli by macro dilution test
Candida albicans = test: Antimicrobial activity against Candida albicans by macro dilution test
Pseudomonas aeruginosa = test: Antimicrobial activity against Pseudomonas aeruginosa by macro dilution test
Salmonella typhimurium = test: Antimicrobial activity against Salmonella enterica subsp. enterica serovar Typhimurium by macro dilution test
Staphylococcus aureus = test: Antimicrobial activity against Staphylococcus aureus by macro dilution test
Bacillus subtilis = test: Antimicrobial activity against Bacillus subtilis by macro dilution test
Streptococcus pyogenes = test: Antimicrobial activity against Streptococcus pyogenes by macro dilution test

SMILES	MIC (Candida parapsilosis) [µg/mL]	MIC (Cryptococcus neoformans) [µg/mL]	MIC (Pichia kudriavzevii) [µg/mL]	MIC (Escherichia coli) [µg/mL]	MIC (Candida albicans) [µg/mL]	MIC (Pseudomonas aeruginosa) [µg/mL]	MIC (Salmonella typhimurium) [µg/mL]	MIC (Staphylococcus aureus) [µg/mL]	MIC (Bacillus subtilis) [µg/mL]	MIC (Streptococcus pyogenes) [µg/mL]
CCCCC/C=C\CC[C@H](O)CCCCCCCC(=O)Oc1ccc2ccc(=O)oc2c1	16 (≈ 36.2 µM)	8 (≈ 18.1 µM)	256 (≈ 578 µM)	32 (≈ 72.3 µM)	2 (≈ 4.52 µM)	128 (≈ 289 µM)	64 (≈ 145 µM)	32 (≈ 72.3 µM)	64 (≈ 145 µM)	32 (≈ 72.3 µM)
CCCCCC[C@@H](O)C/C=C\CCCCCCCC(=O)Oc1ccc2ccc(=O)oc2c1	16 (≈ 36.2 µM)	16 (≈ 36.2 µM)	256 (≈ 578 µM)	64 (≈ 145 µM)	4 (≈ 9.04 µM)	128 (≈ 289 µM)	64 (≈ 145 µM)	32 (≈ 72.3 µM)	64 (≈ 145 µM)	64 (≈ 145 µM)
CCCCCCCC/C=C\CCCCCCCC(=O)Oc1ccc2ccc(=O)oc2c1	64 (≈ 150 µM)	32 (≈ 75 µM)	512 (≈ 1200 µM)	128 (≈ 300 µM)	8 (≈ 18.8 µM)	128 (≈ 300 µM)	128 (≈ 300 µM)	128 (≈ 300 µM)	64 (≈ 150 µM)	128 (≈ 300 µM)
C=CCCCCCCCCC(=O)Oc1ccc2ccc(=O)oc2c1	32 (≈ 97.4 µM)	16 (≈ 48.7 µM)	256 (≈ 780 µM)	128 (≈ 390 µM)	4 (≈ 12.2 µM)	128 (≈ 390 µM)	64 (≈ 195 µM)	128 (≈ 390 µM)	64 (≈ 195 µM)	64 (≈ 195 µM)
O=C(N[C@H](CO)[C@H](O)c1ccc([N+](=O)[O-])cc1)C(Cl)Cl [CHLORAMPHENICOL]				32 (≈ 99 µM)		64 (≈ 198 µM)	32 (≈ 99 µM)	32 (≈ 99 µM)	32 (≈ 99 µM)	32 (≈ 99 µM)
OC(Cn1cncn1)(Cn1cncn1)c1ccc(F)cc1F [FLUCONAZOLE]	8 (≈ 26.1 µM)	8 (≈ 26.1 µM)	64 (≈ 209 µM)		1 (≈ 3.27 µM)					
